Measurements from patent US6673749B1, “Use of phyllocladane diterpenoids for plant growth promotion and alleviation of growth retardant allelochemicals, and method therefor” (Council of Scientific and Industrial Research, priority 2002, dated 2004).

Key:
Assay type in all cases: in vivo
[1] = test system: Hordeum vulgare; experiment: Seed germination and seedling shoot/root growth test in petridishes; conditions: control = 100%
Summary of the method: (§1)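 Ten seeds per 9.0 cm dish on filter paper wetted with 0.1, 0.01 or 0.001 μM compound solution (ethanol or acetone cosolvent, matched in controls), in triplicate. Incubated 9 days at 25.0±1.0 °C, 90% humidity, 4 hr light/day. Germination and shoot and root length expressed relative to control taken as 100%.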

[2] = test system: Trigonella foenum-graecum; experiment: as above; conditions: for Percent (%) germination of seeds in relation to control on 9th day after sowing / Percent (%) root growth of seedlings in relation to control on 9th day after sowing / Percent (%) shoot growth of seedlings in relation to control on 9th day after sowing: Trigonella foenum graecum, control = 100%
Summary of the method: as §1

[3] = test system: Triticum aestivum; experiment: as above; conditions: control = 100%
Summary of the method: as §1

[4] = test system: Vigna radiata; experiment: as above; conditions: Vigna radiata, control = 100%
Summary of the method: as §1

[5] = test system: Hibiscus sabdariffa; experiment: Seed germination and seedling growth, comparison with GA3 (Example 4)
Experimental: (§2) 100 ml stalk solutions of 0.1 μM concentration were prepared by dissolving required amounts of various test compounds (depending upon their molecular weights) in minimum amount of ethanol or acetone and adding distilled water. From this stalk solution, 0.01 μM and 0.001 μM concentrations were prepared. Calliterpenone and calliterpenone di acetate was dissolved in 2.0 ml absolute ethanol (Merc), while; calliterpenone monoacetate, isopropylideno calliterpenone and trihydroxy calliterpenone were dissolved in 2.0 ml spectral grade acetone (Ranbaxy). The respective control test solutions of distilled water of each concentration also contained equal amount of absolute ethanol or acetone. For an assay, 10 seeds were placed on Whatman filter paper (moistened with 5.0 ml of test solution in a 9.0 cm diameter petridish (in triplicate). The pteridishes were incubated for 9 days in a germinator, maintained at 25.0±1.0° C. with 90% humidity and 4 hr light/day. At the end of incubation, observations were recorded on the seedlings in terms of germination, shoot and root growth. The data on the length of shoot and root of seedlings and number of seeds germinated in different concentrations of compounds were compared with the control, which was taken as 100%. The data thus obtained were presented in Table-1.
(§3) Effect of calliterpenone and its derivatives on seed germination and seedling growth in Hibiscus sabdariffa and Sesbania cannabina were measured in the similar way as these were measured in Example-1.

[6] = test system: Sesbania cannabina; experiment: as above
Experimental: as §2, §3

[7] = test system: Hibiscus sabdariffa; experiment: Antagonistic effect with Artemisia annua seed extract on germination and seedling growth; conditions: A. annua seed extract (1.3 g seeds/100 ml) alone or mixed 1:1 with 0.01 μm compound, control = 100%
Experimental: (§4) On the other hand, it is evident from Exp. 1-4 that phyllocladane diterpenenoids have produced germination and growth promoting activities on various plant species. To find out the combined effect of A. annua extract and phyllocladane diterpenoides on the germination and seedling growth of different plant species, 1:1 ratio of these compounds and A.annua extract were tested in the present experiment. For this, Hibiscus sabdariffa and Sesbania cannabina seeds were germinated in A.annua seed extract and solutions prepared by mixing this extract with 0.01 μm calliterpenone and calliterpenone mono-acetate respectively (Table 7). For the preparation of A.annua extract, 1.3 g seeds were soaked in 100 ml of distilled water for 24 hrs for testing on H. sabdariffa. Since, at this concentration, seeds of this species have shown 69% mortality which may be taken as good indicator. This effect was also recorded in S.cannabina. Since, in this case, seeds were almost half in weight as compared to the seeds of H. sabdariffa, accordingly, 0.65 g A. annua seeds were soaked in 100 ml of distilled water for 24 hrs to produce identical constraints in S. cannabina. For control, seeds were germinated in distilled water and all the observations were compared with it. […] Therefore, calliterpenone and its derivatives can be used to nullify the effects of other growth retardants/allelochemicals in the fields for their reclamation.

[8] = test system: Sesbania cannabina; experiment: as above; conditions: A. annua seed extract (0.65 g seeds/100 ml) alone or mixed 1:1 with 0.01 μm compound, control = 100%
Experimental: as §4

CC(=O)OCC1(O)CC23CCC4C(C)(C)C(=O)CCC4(C)C2CCC1C3 (stereo not shown) [Calliterpenone Monoacetate, calliterpenone monoacetate]
Percent (%) germination of seeds in relation to control on 9th day after sowing ([1]; 0.001 μM): 100%
Percent (%) root growth of seedlings in relation to control on 9th day after sowing ([1]; 0.001 μM): 146%
Percent (%) shoot growth of seedlings in relation to control on 9th day after sowing ([1]; 0.001 μM): 113%
Percent (%) germination of seeds in relation to control on 9th day after sowing ([1]; 0.01 μM): 100%
Percent (%) root growth of seedlings in relation to control on 9th day after sowing ([1]; 0.01 μM): 114%
Percent (%) shoot growth of seedlings in relation to control on 9th day after sowing ([1]; 0.01 μM): 117%
Percent (%) germination of seeds in relation to control on 9th day after sowing ([1]; 0.1 μM): 100%
Percent (%) root growth of seedlings in relation to control on 9th day after sowing ([1]; 0.1 μM): 124%
Percent (%) shoot growth of seedlings in relation to control on 9th day after sowing ([1]; 0.1 μM): 118%
Percent (%) germination of seeds in relation to control on 9th day after sowing ([2]; 0.001 μM): 113%
Percent (%) root growth of seedlings in relation to control on 9th day after sowing ([2]; 0.001 μM): 131%
Percent (%) shoot growth of seedlings in relation to control on 9th day after sowing ([2]; 0.001 μM): 135%
Percent (%) germination of seeds in relation to control on 9th day after sowing ([2]; 0.01 μM): 113%
Percent (%) root growth of seedlings in relation to control on 9th day after sowing ([2]; 0.01 μM): 95%
Percent (%) shoot growth of seedlings in relation to control on 9th day after sowing ([2]; 0.01 μM): 134%
Percent (%) germination of seeds in relation to control on 9th day after sowing ([2]; 0.1 μM): 113%
Percent (%) root growth of seedlings in relation to control on 9th day after sowing ([2]; 0.1 μM): 81%
Percent (%) shoot growth of seedlings in relation to control on 9th day after sowing ([2]; 0.1 μM): 133%
Seed germination as compared to 100% in control ([2]; Trigonella foenum-graceum, concentration not specified): 113%
Percent (%) germination of seeds in relation to control on 9th day after sowing ([3]; 0.001 μM): 100%
Percent (%) root growth of seedlings in relation to control on 9th day after sowing ([3]; 0.001 μM): 145%
Percent (%) shoot growth of seedlings in relation to control on 9th day after sowing ([3]; 0.001 μM): 106%
Percent (%) germination of seeds in relation to control on 9th day after sowing ([3]; 0.01 μM): 100%
Percent (%) root growth of seedlings in relation to control on 9th day after sowing ([3]; 0.01 μM): 102%
Percent (%) shoot growth of seedlings in relation to control on 9th day after sowing ([3]; 0.01 μM): 107%
Percent (%) germination of seeds in relation to control on 9th day after sowing ([3]; 0.1 μM): 100%
Percent (%) root growth of seedlings in relation to control on 9th day after sowing ([3]; 0.1 μM): 88%
Percent (%) shoot growth of seedlings in relation to control on 9th day after sowing ([3]; 0.1 μM): 109%
Percent (%) germination of seeds in relation to control on 9th day after sowing ([4]; 0.001 μM): 100%
Percent (%) root growth of seedlings in relation to control on 9th day after sowing ([4]; 0.001 μM): 104%
Percent (%) shoot growth of seedlings in relation to control on 9th day after sowing ([4]; 0.001 μM): 138%
Percent (%) germination of seeds in relation to control on 9th day after sowing ([4]; 0.01 μM): 150%
Percent (%) root growth of seedlings in relation to control on 9th day after sowing ([4]; 0.01 μM): 85%
Percent (%) shoot growth of seedlings in relation to control on 9th day after sowing ([4]; 0.01 μM): 130%
Percent (%) germination of seeds in relation to control on 9th day after sowing ([4]; 0.1 μM): 200%
Percent (%) root growth of seedlings in relation to control on 9th day after sowing ([4]; 0.1 μM): 67%
Percent (%) shoot growth of seedlings in relation to control on 9th day after sowing ([4]; 0.1 μM): 123%
Enhancement in germination (in words) [5]: did not produce any enhancement in germination
Seed Ger. ([5]; 0.001 μM): 3
Root Growth (mm) 3rd Day ([5]; 0.001 μM): 16.3 mm
Shoot growth 3rd Day ([5]; 0.001 μM): 28.8
Root Growth (mm) 6th Day ([5]; 0.001 μM): 19.3 mm
Shoot growth 6th Day ([5]; 0.001 μM): 85.8
Root Growth (mm) 9th Day ([5]; 0.001 μM): 24.8 mm
Shoot growth 9th Day ([5]; 0.001 μM): 91.6
Seed Ger. ([5]; 0.01 μM): 2
Root Growth (mm) 3rd Day ([5]; 0.01 μM): 17.5 mm
Shoot growth 3rd Day ([5]; 0.01 μM): 33.5
Root Growth (mm) 6th Day ([5]; 0.01 μM): 18.3 mm
Shoot growth 6th Day ([5]; 0.01 μM): 67.5
Root Growth (mm) 9th Day ([5]; 0.01 μM): 21.3 mm
Shoot growth 9th Day ([5]; 0.01 μM): 75.2
Seed Ger. ([5]; 0.1 μM): 0
Root growth as compared to respective control ([6]; 0.001 μM): 114%
Seed Ger. ([6]; 0.001 μM): 3
Shoot growth as compared to respective control ([6]; 0.001 μM): 109%
Root Growth (mm) 3rd Day ([6]; 0.001 μM): 40.0 mm
Shoot growth 3rd Day ([6]; 0.001 μM): 44.0
Root Growth (mm) 6th Day ([6]; 0.001 μM): 40.0 mm
Shoot growth 6th Day ([6]; 0.001 μM): 110.0
Root Growth (mm) 9th Day ([6]; 0.001 μM, 9th day): 57.0 mm
Root growth as compared to GA3 taken as 100% ([6]; 0.001 μM, 9th day): 143%
Shoot growth 9th Day ([6]; 0.001 μM, 9th day): 120
Seed Ger. ([6]; 0.01 μM): 3
Root Growth (mm) 3rd Day ([6]; 0.01 μM): 28.3 mm
Shoot growth 3rd Day ([6]; 0.01 μM): 20.0
Root Growth (mm) 6th Day ([6]; 0.01 μM): 28.4 mm
Shoot growth 6th Day ([6]; 0.01 μM): 57.8
Root Growth (mm) 9th Day ([6]; 0.01 μM, 9th day): 45.1 mm
Shoot growth 9th Day ([6]; 0.01 μM, 9th day): 78.2
Seed Ger. ([6]; 0.1 μM): 2
Root Growth (mm) 3rd Day ([6]; 0.1 μM): 5.5 mm
Shoot growth 3rd Day ([6]; 0.1 μM): 11.0
Root Growth (mm) 6th Day ([6]; 0.1 μM): 7.5 mm
Shoot growth 6th Day ([6]; 0.1 μM): 50.0
Root Growth (mm) 9th Day ([6]; 0.1 μM, 9th day): 23.0 mm
Shoot growth 9th Day ([6]; 0.1 μM, 9th day): 66.0
Germination as compared to GA3 treatments ([6]; concentration not given): 150%
Germination as compared to its control ([6]; concentration not given): 150%
Percent (%) germination in relation to control on the 9th day after sowing [7]: completely checked the inhibitory effect
Percent (%) seedling growth, Root, in relation to control on the 9th day after sowing [7]: 172%
Percent (%) seedling growth, Stem, in relation to control on the 9th day after sowing [7]: 169%
Percent (%) germination in relation to control on the 9th day after sowing [8]: completely checked the inhibitory effect
Percent (%) seedling growth, Root, in relation to control on the 9th day after sowing [8]: 175%
Percent (%) seedling growth, Stem, in relation to control on the 9th day after sowing [8]: 175%
